Activity and EC50 data for two compounds are collected here from ChEMBL document CHEMBL1147386, “Pantherinine, a cytotoxic aromatic alkaloid, and 7-deazainosine from the ascidian Aplidium pantherinum” (1993).

≈ marks a conversion by molar mass, not a printed value.

The test relates to P388. The test is described as follows: Cytotoxicity against mouse P388 cells. The test is classed as functional.

Regarding `Nc1ncnc2c1ccn2[C@@H]1O[C@H](CO)[C@@H](O)[C@H]1O`, the Activity result was “Toxic”.
Take `NC1=Cc2nc3ccc(Br)cc3c3ccnc(c23)C1=O` [PANTHERININE]: where the note is “read-out: ED50 (the source's name)”, the EC50 came to 4.5 µg/mL (≈ 13.8 µM).
